Laboratory results as given in patent US20130040853A1, “Context Specific Genetic Screen Platform to Aid in Gene Discovery and Target Validation” (Dana-Farber Cancer Institute Inc., priority 2010, published 2013).

System: HMEL-BRAF^V600E melanocytes
Assay: In vivo functional genetic screen and secondary validation: kinase-transduced HMEL cells implanted in nude mice
Parameters: species or system human
Description: A ‘cancer-kinase’ library was constructed containing sequence-verified ORFs in a lentiviral vector for 110 of the 120 kinases reported to sustain somatic driver mutations in diverse human cancers. This library was pooled and introduced into a human HMEL-BRAF^V600E melanocyte model system engineered with BRAF^V600E and TERT as well as p53DD and CDK4-R24C to inactivate the […] pathways, respectively. The HMEL-BRAF^V600E melanocyte profile, while representing the most common clinically-definable genetic profile in human melanoma, is insufficient to drive efficient melanoma formation following orthotopic transplantation in the skin (penetrance of 10% and latency of 26 weeks). In contrast, 40% of HMEL-BRAF^V600E melanocytes transduced with the cancer kinase pools developed tumors with an average latency of 13 weeks (range 10-18 weeks).
In vivo functional genetic screens: Lentivirus were prepared by co-transfecting 293T cells with individual vector backbones and standard virus packaging systems for subsequent collection of viral supernatants. Viral supernatants were then pooled randomly to generate 8 pools of high-titer lentiviral stocks. HMEL cells were transduced with either GFP control lentivirus or each representative lentiviral pool in the presence of 8 ug/ml polybrene (Company). […]

Substance: JNK2 WT: wild type MAPK9/JNK2 kinase ORF expressed in HMEL cells
- Tumorigenicity in vivo (WT or mutant kinase expressed individually): YES
- tumor penetrance (secondary validation, kinase transduced individually into HMEL-BRAF^V600E melanocytes): 50%
